From patent publication US4705799A, “Aminomethyl oxooxazolidinyl benzenes useful as antibacterial agents” (E. I. Du Pont de Nemours and Company, priority 1985, dated 1987)
In brackets after ≈: the same amount, converted by molar mass.

Assays:
Staphylococcus aureus [1] = test: In vitro test, same procedures as microdilution MIC; format: cell-based; settings: same procedures as Table 9
Excerpt: It is believed that the compound of Example 123 would provide control at higher concentrations or under different conditions.

Staphylococcus aureus [2] = test: In vivo efficacy of compounds administered subcutaneously in mouse intraperitoneal infections; settings: sc, 168 h; mouse i.p. Staphylococcus aureus infection; subcutaneous; dosed at infection and 4 h post-infection; 7 days; read-out: ED50 (50 percent effective dose)
[3] = tested on: Staphylococcus epidermidis; test: In vitro broth dilution minimal inhibitory concentration (standard microdilution method); format: cell-based; settings: 24 h, Mueller-Hinton broth, 24-hour, read-out: Microdilution Broth MIC
Staphylococcus aureus [4] = test: In vivo efficacy of orally administered compounds in mouse intraperitoneal infections; settings: for ED50: Staphylococcus aureus, po, 168 h, mouse i.p. Staphylococcus aureus infection, oral, dosed at infection and 4 h post-infection, 7 days, read-out: ED50 (50 percent effective dose)
Escherichia coli [5] = test: In vitro broth dilution minimal inhibitory concentration (standard microdilution method); format: cell-based; settings: for MIC: Escherichia coli, Mueller-Hinton broth, 24-hour, read-out: Microdilution Broth MIC
[6] = Water solubility (observation); format: physicochemical
Escherichia coli [7] = test: In vivo efficacy of compounds administered subcutaneously in mouse intraperitoneal infections; settings: sc, 168 h; mouse i.p. Escherichia coli infection; subcutaneous; dosed at infection and 4 h post-infection; 7 days; read-out: ED50 (50 percent effective dose)
Escherichia coli [8] = test: In vivo efficacy of orally administered compounds in mouse intraperitoneal infections; settings: 168 h; mouse i.p. Escherichia coli infection; oral; dosed at infection and 4 h post-infection; 7 days; read-out: ED50 (50 percent effective dose)

**Q.** Which results are given for CCCCCCN(CC1CN(c2ccc(S(C)(=O)=O)cc2)C(=O)O1)C(=O)OC (racemic) [Example 123, (dl)-N-hexyl-N-[3-[4-(methylsulfonyl)phenyl]-2-oxooxazolidin-5-ylmethyl]carbamic acid, methyl ester]?
**A.** control of Staphylococcus aureus in vitro (Staphylococcus aureus [1]): no control; ED50 (Staphylococcus aureus [2]): 46.6 mg/kg; MIC [3]: > 200 µg/mL; ED50 (Staphylococcus aureus [4]): 27.6 mg/kg; antibacterial effect in vivo (Staphylococcus aureus [4]; in vivo, see Tables 10 and 11): found to exhibit an antibacterial effect in vivo; MIC (Escherichia coli [5]): > 200 µg/mL; control of Escherichia coli in vitro (Escherichia coli [5]; same procedures as Table 9, result in words): no control

**Q.** For CC(=O)NCC1CN(c2ccc(NS(C)(=O)=O)cc2)C(=O)O1 (single isomer, unassigned) [Example 151, (l)-N-[3-[4-(Methylsulfonylamino)phenyl]-2-oxooxazolidin-5-ylmethyl]acetamide], which water solubility [6] is on record?
**A.** quite water soluble

**Q.** What about the ED50 (Staphylococcus aureus [2]) of the same compound?
**A.** 9.7 mg/kg

**Q.** What about the MIC [3] of the same compound?
**A.** 200 µg/mL (≈ 611 µM)

**Q.** What about the ED50 (Staphylococcus aureus [4]) of the same compound?
**A.** 62.9 mg/kg

**Q.** And the MIC (Escherichia coli [5])?
**A.** > 200 µg/mL

**Q.** Which results are given for CCCC(=O)c1ccc(N2CC(CNC(C)=O)OC2=O)cc1 (stereo not drawn) [Example 138, l-N-[2-oxo-3-[4-(1-oxobutyl)phenyl]-5-oxazolidinylmethyl]acetamide]?
**A.** ED50 (Staphylococcus aureus [2]): 5.1 mg/kg; ED50 (Escherichia coli [7]): > 120 mg/kg; MIC [3]: 1 µg/mL (≈ 3.29 µM); ED50 (Staphylococcus aureus [4]): 9.6 mg/kg; ED50 (Escherichia coli [8]): > 120 mg/kg; MIC (Escherichia coli [5]): > 128 µg/mL

**Q.** With CC(=O)NCC1CN(c2ccc(C(C)=O)c(C)c2)C(=O)O1 (stereo not drawn) [Example 142] as the compound, how does the ED50 (Staphylococcus aureus [2]) read?
**A.** 1.8 mg/kg

**Q.** And the ED50 (Escherichia coli [7])?
**A.** 52.1 mg/kg

**Q.** And the MIC [3]?
**A.** 1 µg/mL (≈ 3.44 µM)

**Q.** What about the ED50 (Staphylococcus aureus [4]) of the same compound?
**A.** 1.8 mg/kg

**Q.** And the ED50 (Escherichia coli [8])?
**A.** 52.1 mg/kg

**Q.** What about the MIC (Escherichia coli [5]) of the same compound?
**A.** > 128 µg/mL

**Q.** Which results are given for CS(=O)(=O)c1ccc(N2CC(CNC(=O)CN=[N+]=[N-])OC2=O)cc1 (stereo not drawn) [Example 158]?
**A.** ED50 (Staphylococcus aureus [2]): < 13 mg/kg; ED50 (Escherichia coli [7]): 25 mg/kg; MIC [3]: 6.3 µg/mL (≈ 17.8 µM); ED50 (Staphylococcus aureus [4]): 11.4 mg/kg; ED50 (Escherichia coli [8]): 56.5 mg/kg; MIC (Escherichia coli [5]): 50 µg/mL (≈ 141 µM)

**Q.** Which results are given for CC(=O)c1ccc(N2CC(CNC(=O)C(Cl)Cl)OC2=O)cc1 (stereo not drawn) [Example 172]?
**A.** ED50 (Staphylococcus aureus [2]): 13.6 mg/kg; ED50 (Escherichia coli [7]): > 120 mg/kg; MIC [3]: 4 µg/mL (≈ 11.6 µM); ED50 (Staphylococcus aureus [4]): 10.2 mg/kg; ED50 (Escherichia coli [8]): > 120 mg/kg; MIC (Escherichia coli [5]): > 128 µg/mL
